Legend:
MC38 colon carcinoma = test: MC38 protection (prophylactic vaccination) model; format: in vivo, HHD mice
Description: FIGS. 9A-9B show a series of graphs illustrating induction of specific/protective CD8^+ T cells reactive against TASA as a consequence of DC/peptide-based vaccination. In FIG. 9A, HHD mice (five animals/cohort) were vaccinated twice (d-14, d-7) subcutaneously with PBS or with isologous DC.IL12 pulsed with PBS or synthetic peptides (Table 6) derived from the indicated TASA. In cases where more than 1 peptide was identified for a given target antigen, an equimolar pool of the indicated peptides (each 10 μM) was pulsed onto DC.IL12 and used for vaccination in the relevant cohort. One week after the second immunization, spleens were harvested and splenic CD8^+ T cells isolated using MACS-beads (Miltenyi). T cells were stimulated in vitro for 48 h using the HLA-A2^+ T2 cell line pulsed with relevant TASA vs. irrelevant HIV-nef190-198 ([…]; ref. 24) peptides. Cell-free supernatants were then recovered and IFN-γ levels by ELISA. Data are reported as mean+/−SD for triplicate ELISA determinations, and are representative of 3 independent experiments performed. *p<0.05 vs. HIV-nef control peptide responses. In FIG. 9B, HHD mice were vaccinated twice (days −14 and −7; right flank) subcutaneously with PBS or with isologous DC.IL12 pulsed with PBS or synthetic TASA peptides as indicated in FIG. 1A. In cases where more than 1 peptide is identified for a given target antigen, an equimolar pool of the indicated peptides (each 10 μM) was pulsed onto DC.IL12 and used for vaccination in the relevant cohort. One week after the booster vaccine (i.e. day zero), animals were challenged subcutaneously on their left flank with 2×10^6 MC38 colon carcinoma cells. Tumor growth was then monitored every 3-4 days through day 24. All data represent mean tumor area (in mm^2)+/−SD determined from 5 mice/cohort, and are representative of three independent experiments performed. *p<0.05 versus DC only on the indicated days.
Vaccine Experiments. For prophylactic experiments, HHD mice were immunized subcutaneously on the right flank with 100 μl PBS or PBS containing 10^6 syngenic DC.IL12 cells that had been untreated or pre-pulsed for 4 h at 37° C. with 10 μM synthetic peptide(s). Immunizations occurred on days −14 and −7, with mice subsequently receiving injections of MC38 (2×10^6) tumor cells in the left flank on d0. In all cases, treatment groups contained 5 mice per cohort. For analysis of tumor cellular composition in repeat experiments, MC38 tumors were isolated by surgical resection 10 days after tumor inoculation and prepared for fluorescence imaging, as described below. […] Mice were then untreated or treated with control, syngenic DC.IL12 or DC.IL12 (10^6 cells injected subcutaneously in the left flank on days 7 and 14) pulsed with synthetic TBVA peptides. In some assays, as indicated, in vivo antibody depletions (on days 6, 13 and 20 post-tumor inoculation to assess early involvement or on days 60 and 67 or 180 and 187 to assess late involvement) of protective CD4^+ T cells or CD8^+ T cells were performed and monitored as previously described (Zhao et al., Mol Ther., 19:805-814, 2011). In all cases, tumor size (area) was monitored every 3-4 days and is reported as mean+/−SD in mm^2.
The DLK1, EphA2, HBB, NG2, NRP1, NRP2, PDGFRβ, PSMA, RGS5, TEM1, VEGFR1 and VEGFR2 antigens were expressed in situ by blood vessel cells in the MC38 colon carcinoma TME (FIG. 14). Protection of HHD mice against a challenge with HLA-A2^neg MC38 tumor cells injected subcutaneously on day zero was assayed with immunization with TBVA-derived peptides on days −14 and −7. […]

[1] = tested on: MC38 tumor microenvironment; test: Fluorescence imaging of MC38 tumor sections after prophylactic vaccination; format: in vivo, HHD mice; details: day 14 tumors; p<0.05 vs. untreated or DC.IL12/no peptide
Description: Day 14 MC38 tumors were harvested from HHD mice that had been vaccinated as outlined in FIG. 9B with the indicated peptides (or control PBS or DC.IL12 alone=No peptide). In FIG. 10A, six-micron tissue sections were co-stained with anti-CD8 (green) and anti-NG2 (red) antibodies and imaged by fluorescence microscopy. Blue signal=nuclear counterstain using 4′,6-diamidino-2-phenylindole (DAPI). FIG. 10B provides a summary of the mean+/−SD number of CD8^+ cells per high-power field (HPF) in MC38 tumors isolated from control or vaccinated mice as depicted in FIG. 10A. In FIG. 10C, tissue sections were co-stained with anti-CD31 (green) and anti-NG2 (red) antibodies and imaged by fluorescence microscopy. Blue signal=nuclear counterstain using DAPI. In FIG. 10D, the mean+/−SD number of CD31^+ vessels per HPF of MC38 tumors in control or vaccinated mice are summarized Representative data is depicted from 1 of 3 independent experiments performed. *p<0.05 versus DC only or untreated control mice.
Fluorescence Imaging of Tumor Sections. Tumor tissue samples were prepared and 6 micron sections prepared as previously reported (Komita et al., Cancer Res., 68:8076-8084, 2008). The following Abs were used: (for T cell analyses), rabbit anti-mouse NG2 (Millipore, Bedford, Mass.) and alexa488-conjugated anti-CD4 or -CD8β antibodies or matching isotype controls (all from BD-Biosciences); (for vascular analyses), rat anti-mouse CD31 (BD-Biosciences) and rabbit anti-mouse NG2 (Millipore) Abs; (for TBVA), rat anti-mouse CD31 (BD-Biosciences) and guinea pig anti-mouse NG2 Abs, along with anti-TBVA as described in Example 1. Imaging was performed using an Olympus Fluoview 500 Confocal microscope (Olympus America, Center Valley, Pa.).
Protective vaccines incorporating TBVA peptides promote enhanced infiltration of the TME by CD8^+ T cells in association with an inhibition of tumor vascularity. MC38 tumor lesions from all cohorts of animals with evidence of disease on day 14 (post-tumor inoculation) were isolated and immunofluorescence microscopy on tumor sections was performed. […] In marked contrast, CD4^+ T cell infiltration in the TME was sparse and the data were indistinguishable when comparing control vs. vaccinated mice (FIG. 17). […] Correlative analyses indicated an association between the anti-tumor efficacy of vaccines and their ability to promote CD8^+ T cell infiltration and reduced vascularity in the TME (FIG. 16).

VEGFR2: VEGFR2-derived peptide 773-781 pulsed onto DC or DC.IL12 (VIAMFFWLL; listed as Homo sapiens)
Anti-tumor efficacy in MC38 protection model (MC38 colon carcinoma; DC.IL12 pulsed with a pool of 1 or more peptides derived from the indicated TBVA, vaccination d-14, d-7): +/- (+/-, p < 0.05 versus DC only for 2 consecutive time points)
Protection against HLA-A2neg MC38 tumor challenge (MC38 colon carcinoma; immunization days -14 and -7, tumor challenge day 0 (FIG. 9B)): minimal protection
Suppression in CD31+ vessel counts in the MC38 TME [1]: somewhat less pronounced effects
